According to BindingDB's records for doi:10.1021/acs.jmedchem.0c00899 (Ut Southwestern Medical Center, 2020):
pIC50: −log10 of the molar value.

Tests used:
[1] = Inhibition of SCD in human NCI-H1155 cells non-expressing CYP4F11 assessed as reduction in cell viability incubated for 96 hrs by cell titer Glo reagent based assay
[2] = Inhibition of SCD in human NCI-H2122 cells expressing CYP4F11 assessed as reduction in cell viability incubated for 96 hrs by cell titer Glo reagent based assay
[3] = Inhibition of SCD in human H2009 cells non-expressing CYP4F11 assessed as reduction in cell viability incubated for 96 hrs by cell titer Glo reagent based assay

Cc1nnc(-c2ccc(N3CCC(Oc4cc(F)ccc4Cl)CC3)nn2)o1
pIC50 [1]: > 8.00
pIC50 [2]: > 8.00

COc1ccc2nc(NC(=O)c3cccnc3)sc2c1
pIC50 [3]: 4.43
pIC50 [2]: 5.96

COc1ccc2nc(NC(=O)c3ccc(C(=O)N4CCN(C)CC4)cc3)sc2c1
pIC50 [3]: < 4.30
pIC50 [2]: < 4.30

O=C(Nc1nc2ccccc2s1)c1cccnc1
pIC50 [3]: < 4.30
pIC50 [2]: 6.59

O=C(Nc1nc2ccccc2[nH]1)c1ccc(C(=O)c2ccccc2)cc1
pIC50 [3]: 5.74
pIC50 [2]: 7.38

O=C(Nc1nc2ccccc2o1)c1ccc(C(=O)c2ccccc2)cc1
pIC50 [2]: 4.37

O=C(Nc1nccs1)c1ccc(C(=O)c2ccccc2)cc1
pIC50 [3]: < 4.30
pIC50 [2]: 4.48

O=C(Nc1ncc(-c2ccccc2)s1)c1ccc(C(=O)c2ccccc2)cc1
pIC50 [3]: 5.30
pIC50 [2]: 5.24

O=C(Nc1nc(-c2ccccc2)cs1)c1ccc(C(=O)c2ccccc2)cc1
pIC50 [3]: 4.83
pIC50 [2]: 5.33

COc1ccc(C(=O)Nc2nc3cc(N)ccc3s2)cc1
pIC50 [3]: < 4.30
pIC50 [2]: < 4.30

COc1ccc2nc(NC(=O)CCc3ccccc3)sc2c1
pIC50 [2]: < 4.30

COc1ccc2nc(NS(=O)(=O)c3ccccc3)sc2c1
pIC50 [2]: < 4.30
